For `COc1ccc(-n2nc(C3CC3)cc2-c2ccc(OCCNS(C)(=O)=O)cc2)cn1`, the melting point was 95 to 97 °C.

Turning to `COc1ccc(-n2nc(C(F)(F)F)cc2-c2ccc(CCCS(C)(=O)=O)cc2)cn1`, the melting point is 121 to 122 °C. Consider `COc1ccc(-n2nc(C(F)(F)F)cc2-c2ccc(CCC[S+](C)[O-])cc2)cn1` (stereo not shown), for which the melting point lay in the range of 92 to 93 °C. As for `COc1ccc(-n2nc(C(F)(F)F)cc2-c2ccc(CNS(C)(=O)=O)cc2)cn1`, the figure is 125 to 126 °C; as for `CCOc1cc(-c2ccc(OCCNC(N)=O)cc2)n(-c2ccc(OC)cc2)n1`, 154.2 to 154.4 °C; as for `COc1ccc(-n2nc(C(F)(F)F)cc2-c2ccc(OCC(N)=O)cc2)cc1`, 168 to 169 °C. The molecule `COc1ccc(-n2nc(S(C)(=O)=O)cc2-c2ccc(OCCNC(N)=O)cc2)cc1` returned a melting point of 165 to 167 °C. As to `COc1ccc(-n2nc(N(C)C(=O)N(C)C)cc2-c2ccc(OCCNC(N)=O)cc2)cc1`, the melting point was 158.6 to 159 °C. Regarding `COc1ccc(-n2nc(C(C)C)cc2-c2ccc(OCCNS(C)(=O)=O)cc2)cn1`, the melting point was in the range of 96 to 97 °C. Then `CNC(=O)NCCc1ccc(-c2cc(C(F)(F)F)nn2-c2ccc(OC)nc2)cc1`, with 149 °C; and `COc1ccc(-n2nc(OC)cc2-c2ccc(CNS(C)(=O)=O)cc2)cc1`, with 94 to 94.3 °C; and `COc1ccc(-n2nc(Cl)cc2-c2ccc(OCCNS(=O)(=O)CCO)cc2)cc1`, with 139.1 to 139.4 °C. Take `COc1ccc(-n2nc(C3CC3)cc2-c2ccc(OCCNS(N)(=O)=O)cc2)cc1`: the melting point lay in the range of 142 to 143 °C.

The molecule `COc1ccc(-n2nc(C(=O)C(C)C)cc2-c2ccc(OCCO)cc2)cn1` came in with a melting point of 108 to 109 °C. Then `COc1ccc(-n2nc(C3CC3)cc2-c2ccc(OCCO)cc2)cc1`, with 142 to 144 °C; and `COc1ccc(-n2nc(C(=O)C(C)C)cc2-c2ccc(CNS(C)(=O)=O)cc2)cn1`, with 160.8 to 161.2 °C. As for `COc1ccc(-n2nc(C(F)(F)F)cc2-c2ccc(CCNS(N)(=O)=O)cc2)cn1`, the figure is 114 to 115 °C; as for `COc1ccc(-n2nc(OCC(F)(F)F)cc2-c2ccc(OCCNC(N)=O)cc2)cc1`, 130 to 132 °C; as for `COc1ccc(-n2nc(OCC(F)(F)F)cc2-c2ccc(OCCNS(C)(=O)=O)cc2)cc1`, 131.3 to 131.4 °C.

`COc1ccc(-n2nc(C(=O)C(C)C)cc2-c2ccc(OCCN)cc2)cn1.Cl.Cl`: the melting point is 156 to 161 °C. Then `COc1ccc(-n2nc(OC(C)C)cc2-c2ccc(OCCNS(C)(=O)=O)cc2)cc1`, with 167.9 to 168 °C.

The molecule `COc1ccc(-n2nc(C(F)(F)F)cc2-c2ccc(CCNC(C)=O)cc2)cn1` had a melting point of 97 to 98 °C. For `COc1ccc(-n2nc(OC)cc2-c2ccc(OCCNC(N)=O)cc2)cn1`, the melting point was 192.6 to 192.7 °C.

`COc1ccc(-n2nc(C(F)(F)F)cc2-c2ccc(CCS(N)(=O)=O)cc2)cc1` gave a melting point of 131 to 132 °C. Then `COc1ccc(-n2nc(C3CC3)cc2-c2ccc(OCCN)cc2)cc1.Cl` [277], with 229 to 231 °C; and `COc1ccc(-n2nc(C#N)cc2-c2ccc(OCCO)cc2)cn1`, with 105 to 107 °C; and `COCCOc1cc(-c2ccc(OCCNC(N)=O)cc2)n(-c2ccc(OC)cc2)n1`, with 131 to 132 °C.

In turn, `COc1ccc(-n2nc(OC)cc2-c2ccc(OCCNS(C)(=O)=O)cc2)cc1` yielded a melting point of 103 to 104 °C. As for `COc1ccc(-n2nc(-c3nc(C)no3)cc2-c2ccc(CCO)cc2)cc1`, the figure is 148 to 150 °C.

`COc1ccc(-n2nc(OCC(F)(F)F)cc2-c2ccc(OCCO)cc2)cn1` registered a melting point of 91.2 to 91.3 °C. As for `COc1ccc(-n2nc(C(=O)N3CCCCC3)cc2-c2ccc(CNS(C)(=O)=O)cc2)cn1`, the figure is 182.6 to 182.9 °C.

(Values after patent publication US7183306B2, “Pyrazole derivatives” (Astellas Pharma Inc., priority 2002, dated 2007).)
